Laboratory results taken from patent US20220380331A1, “TREATMENT OF CONDITIONS OF THE NERVOUS SYSTEM” (priority 2019, published 2022).

Legend:
[1] = Solubility in aqueous solution; type: physicochemical
Excerpt: The inventors hypothesised that since the hydroxyl functional groups required for activity were not altered when designing the PNNi analogues, they should retain the capacity to potently reduce PNNs.

PNN-HEK293 cells = assay: Immunocytochemistry of PNN formation (WFA) with PNNi analogues; type: cell-based, human; settings: 0.5 mM and 1 mM, 3 days in vitro
Description: To compare the efficacy of PNNi, JD009, and JD013 in reducing PNN formation, immunocytochemistry was conducted using the N-acetylgalactosamine-binding lectin WFA to label PNNs. PNN-HEK293 cells were exposed to 0.5 mM and 1 mM of the compounds for 3 days in vitro. […] Quantification of WFA fluorescence intensity per cell was derived in matched regions of interest (ROI) and normalising overall WFA fluorescence intensity to cell number.

CN(C)Cc1cc(=O)oc2cc(O)ccc12 [JD009]
solubility relative to PNNi [1]: increased solubility | PNN morphology and expression (WFA fluorescence intensity per cell) (PNN-HEK293 cells): altered PNN expression

O=c1cc(CN2CCOCC2)c2ccc(O)cc2o1 [JD013, 7-hydroxy-4-[(morpholin-4-yl)methyl]-2H-1-benzopyran-2-one]
solubility relative to PNNi [1]: increased solubility | PNN morphology and expression (WFA fluorescence intensity per cell) (PNN-HEK293 cells): altered PNN expression
